# Like-named read-outs stand apart in the source and are kept apart here.
# Columns and labels:
# [1] = 5-FU plasma pharmacokinetics; format: in vivo, human; settings: for AUC / Cmax / Css: plasma 5-FU, mean ± SD
# [2] = test system: patients with refractory colorectal cancer; assay: Toxicity assessment per NCI CTC 3.0; format: in vivo, human
# [3] = read-out: Cmax of vorinostat; single-agent 900 mg/m^2 i.v. over 2 hours x 3 days every 3 weeks; ref [26]; cited from earlier work
# [4] = test system: metastatic colorectal cancer; assay: Antitumor response by CT; format: in vivo, human; settings: 21 assessable patients, vorinostat + FOLFOX
# [5] = Vorinostat serum pharmacokinetics; format: in vivo, human; settings: for AUC / Tmax / half-life / Cmax: human, po
# [6] = test system: thymidylate synthase (TS); assay: TS tumor expression by immunohistochemistry in paired liver metastasis biopsies; format: in vivo, human; settings: for Change in TS staining intensity (IHC): day 4 vs pre-treatment
# [7] = test system: thymidylate synthase (TS); settings: ref [28], [29], cited from earlier work
# [8] = test system: patients with refractory colorectal cancer
# [9] = test system: thymidylate synthase (TS); assay: TS tumor gene expression by RT-PCR in paired biopsies; format: in vivo, human
# [10] = maintenance dose 2400 mg/m^2, vorinostat 100 mg
# [11] = maintenance dose 2400 mg/m^2, vorinostat 200 mg
# [12] = maintenance dose 2400 mg/m^2, vorinostat 300 mg
# [13] = maintenance dose 2400 mg/m^2, vorinostat 400 mg
# [14] = DL4 vorinostat 400 mg BID+FOLFOX, 4 patients, all cycles
# [15] = all dose levels, 21 patients, vorinostat + FOLFOX
# [16] = serum, 100 mg, vorinostat 100 mg PO BID, Day 1, serum, mean
# [17] = serum, 200 mg, vorinostat 200 mg PO BID, Day 5 (with FOLFOX), serum, mean
# [18] = serum, 300 mg, vorinostat 300 mg PO BID, Day 1, serum, mean
# [19] = serum, 300 mg, vorinostat 300 mg PO BID, Day 5 (with FOLFOX), serum, mean
# [20] = serum, 400 mg, vorinostat 400 mg PO BID, Day 1, serum, mean
# [21] = serum, 400 mg, vorinostat 400 mg PO BID, Day 5 (with FOLFOX), serum, mean
compound,measurement,setting,value
"O=c1[nH]cc(F)c(=O)[nH]1 [5-FU, 5-Fluorouracil]",AUC,[1]; [10],15.3 ± 5.7 ηg*hr/mL
same,Cmax,[1]; [10],5.03 ± 4.39 ηg/mL
same,Css,[1]; [10],0.287 ± 0.044 ηg/mL
same,AUC,[1]; [11],24 ± 9.11 ηg*hr/mL
same,Cmax,[1]; [11],13.1 ± 7.96 ηg/mL
same,Css,[1]; [11],0.274 ± 0.045 ηg/mL
same,AUC,[1]; [12],68.7 ± 88.1 ηg*hr/mL
same,Cmax,[1]; [12],24.5 ± 14.5 ηg/mL
same,Css,[1]; [12],0.396 ± 0.159 ηg/mL
same,AUC,[1]; [13],46.7 ± 10.6 ηg*hr/mL
same,Cmax,[1]; [13],26.8 ± 11.4 ηg/mL
same,Css,[1]; [13],0.432 ± 0.077 ηg/mL
same,median 5-FU Css,[1]; vorinostat 100 mg BID dose group,3000 ng/mL
same,Median 5-FU AUC,[1]; vorinostat 100 mg dose group,14000 ng·h/mL
same,median 5-FU Css,[1]; vorinostat 200 mg BID dose group,16000 ng/mL
same,Median 5-FU AUC,[1]; vorinostat 200 mg dose group,26000 ng·h/mL
same,median 5-FU Css,[1]; vorinostat 300 mg BID dose group,20000 ng/mL
same,Median 5-FU AUC,[1]; vorinostat 300 mg dose group,35000 ng·h/mL
same,median 5-FU Css,[1]; vorinostat 400 mg BID dose group,23000 ng/mL
same,Median 5-FU AUC,[1]; vorinostat 400 mg dose group,44000 ng·h/mL
"O=C(CCCCCCC(=O)Nc1ccccc1)NO [vorinostat, Suberoylanilide Hydroxamic Acid]",Neutropenia G3 (patients),[2]; [14],2
same,Thrombocytopenia G4 (patients),[2]; [14],2
same,Grade 3-4 thrombocytopenia (patients),[2]; [15],5
same,Grade 3-4 thrombocytopenia (share of patients),[2]; [15],24%
same,Cmax,[3],> 20000 nM
same,Objective response,[4],No patient developed an objective response
same,Patients with confirmed stable disease,[4],5
same,Patients with stable disease on 2-month staging CT scan,[4],Eleven
same,AUC,[5]; [16],2.5 µM·h
same,Tmax,[5]; [16],2.4 h
same,half-life,"[5]; serum, 100 mg, t1/2, vorinostat 100 mg PO BID, Day 1, serum, mean",1.5 h
same,AUC,"[5]; serum, 200 mg, vorinostat 200 mg PO BID, Day 1, serum, mean",1.9 µM·h
same,AUC,[5]; [17],3.3 µM·h
same,Cmax,"[5]; serum, 200 mg, Cmax, vorinostat 200 mg PO BID, Day 1, serum, mean",816 nM
same,Cmax,"[5]; serum, 200 mg, Cmax, vorinostat 200 mg PO BID, Day 5 (with FOLFOX), serum, mean",894 nM
same,Tmax,[5]; [17],2.7 h
same,half-life,"[5]; serum, 200 mg, t1/2, vorinostat 200 mg PO BID, Day 1, serum, mean",1.2 h
same,AUC,[5]; [18],4.4 µM·h
same,AUC,[5]; [19],6.8 µM·h
same,Cmax,"[5]; serum, 300 mg, Cmax, vorinostat 300 mg PO BID, Day 1, serum, mean",1460 nM
same,Cmax,"[5]; serum, 300 mg, Cmax, vorinostat 300 mg PO BID, Day 5 (with FOLFOX), serum, mean",950 nM
same,Tmax,[5]; [18],1.6 h
same,Tmax,[5]; [19],2.4 h
same,half-life,"[5]; serum, 300 mg, t1/2, vorinostat 300 mg PO BID, Day 1, serum, mean",2.3 h
same,half-life,"[5]; serum, 300 mg, t1/2, vorinostat 300 mg PO BID, Day 5 (with FOLFOX), serum, mean",2.3 h
same,AUC,[5]; [20],4.5 µM·h
same,AUC,[5]; [21],7.4 µM·h
same,Cmax,"[5]; serum, 400 mg, Cmax, vorinostat 400 mg PO BID, Day 1, serum, mean",1510 nM
same,Cmax,"[5]; serum, 400 mg, Cmax, vorinostat 400 mg PO BID, Day 5 (with FOLFOX), serum, mean",1480 nM
same,Tmax,[5]; [20],1.9 h
same,Tmax,[5]; [21],2.8 h
same,half-life,"[5]; serum, 400 mg, t1/2, vorinostat 400 mg PO BID, Day 1, serum, mean",3.7 h
same,half-life,"[5]; serum, 400 mg, t1/2, vorinostat 400 mg PO BID, Day 5 (with FOLFOX), serum, mean",2.2 h
same,Cmax,"[5]; serum, Cmax of vorinostat, at all dose levels (100-400 mg PO BID)",< 2000 nM
same,CLapp,"[5]; vorinostat 100 mg PO BID, Day 1, serum, mean",189 L/h
same,CLapp,"[5]; vorinostat 100 mg PO BID, Day 5 (with FOLFOX), serum, mean",202 L/h
same,CLapp,"[5]; vorinostat 200 mg PO BID, Day 1, serum, mean",400 L/h
same,CLapp,"[5]; vorinostat 200 mg PO BID, Day 5 (with FOLFOX), serum, mean",231 L/h
same,CLapp,"[5]; vorinostat 300 mg PO BID, Day 1, serum, mean",285 L/h
same,CLapp,"[5]; vorinostat 300 mg PO BID, Day 5 (with FOLFOX), serum, mean",225 L/h
same,CLapp,"[5]; vorinostat 400 mg PO BID, Day 1, serum, mean",345 L/h
same,CLapp,"[5]; vorinostat 400 mg PO BID, Day 5 (with FOLFOX), serum, mean",211 L/h
same,"Change in vorinostat Clapp, day 5 compared to day 1","[5]; within patients, 14 patients, p=0.003",significant decrease
same,"Change in vorinostat AUC, day 5 compared to day 1","[5]; within patients, 14 patients, p=0.005",significant increase
same,"Change in vorinostat Tmax, day 5 compared to day 1","[5]; within patients, 19 patients, p=0.02",statistically significant increase
same,Patients with no change in TS staining pattern (IHC),"[6]; 6 paired samples, pre-treatment vs 4th day of vorinostat, cycle 1",4
same,Change in TS staining intensity (IHC),[6]; one patient at DL1 (vorinostat 100 mg PO BID),decreased intensity from strong to weak
same,Change in TS staining intensity (IHC),[6]; one patient at DL4 (vorinostat 400 mg PO BID),increase in intensity from weak to strong
same,Down-regulation of TS expression,"[7]; in vitro and in vivo models, Q-PCR analysis",≤ 100 fold
same,Vorinostat concentration required for effective TS down-regulation,"[7]; pre-clinical studies, 24 hours of vorinostat exposure",≥ 5 µM
same,Patients with DLT,"[8]; DL1 vorinostat 100 mg PO BID + FOLFOX, 3 evaluable patients, cycle 1",None
same,Patients with DLT,"[8]; DL2 vorinostat 200 mg PO BID + FOLFOX, 3 patients, cycle 1",without any DLT
same,"Patients with DLT (fatigue, anorexia, dehydration)","[8]; DL3 vorinostat 300 mg PO BID + FOLFOX, evaluable patients, cycle 1",One of 10
same,Tolerability of dose-level,[8]; DL4 vorinostat 400 mg PO BID + FOLFOX,intolerable
same,Patients with DLT (grade 3 fatigue; grade 3 diarrhea in one),"[8]; DL4 vorinostat 400 mg PO BID + FOLFOX, cycle 1",2 of 4
same,MTD of vorinostat in combination with FOLFOX,"[8]; x 1 week every two weeks, FOLFOX on days 4 and 5",300 mg PO BID
same,Patients without any change in TS expression (RT-PCR),[9]; 6 patients with paired biopsies,four
same,Patients with down-regulation of TS (RT-PCR),"[9]; paired tumor biopsies, day 4 of vorinostat vs pre-treatment (DL1 and DL4)",2 of 6
same,Decrease in TS gene expression,[9]; patient at DL1 (vorinostat 100 mg PO BID),~50%
same,TS gene expression relative to β-actin,"[9]; patient at DL1, before vorinostat",0.92
same,TS gene expression relative to β-actin,"[9]; patient at DL1, following vorinostat treatment",0.45
same,Decrease in TS gene expression,[9]; patient at DL4 (vorinostat 400 mg PO BID),approximately 33%
same,TS gene expression relative to β-actin,"[9]; patient at DL4, before vorinostat",2.27
same,TS gene expression relative to β-actin,"[9]; patient at DL4, following vorinostat treatment",1.58

# — PMC4134938 (Clinical cancer research : an official journal of the …, 2009)
